# Results filed as inconclusive are left out. Calls of active or inactive are those of the source.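 The calls were made as follows: active = signal loss with an EC50 at or below twice the highest valid dose for that sample; inconclusive = flat curve with 30 to 70% inhibition, or poor fit; inactive = the rest.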
# Test system: P. falciparum Dd2 in erythrocytes, SYBR Green growth, 72 h
# Assay: Dd2 parasite growth inhibition in erythrocytes – SYBR Green, dry powder samples, set 9, dose response (AID 1159568)
smiles,measurement,value
O=C(C[C@H]1C[C@H]2c3cc(NC(=O)c4ccc5c(c4)OCO5)ccc3O[C@H]2[C@H](CO)O1)NCc1ccc(Oc2ccccc2)cc1,EC50,> 39 µM (inactive)
